The text below walks through data of patent US6037490A, “Boron-containing amino carboxylic acid compounds and uses thereof” (priority 1997, dated 2000).

“Also recorded” adds a separate entry of the source. Like-named read-outs stand apart in the source and are kept apart here.

Data set [1] concerns tumor cells. Particulars: in vivo; cited from earlier work.
Data set [2] has as its system tumor cells. Particulars: cited from earlier work; for ratio of boron in tumor cells compared to normal cells: in vivo.
Data set [3] deals with A549 lung cancer cells. Nature of the data set: Cellular toxicity, colony survival assay in A549 lung cancer cells. Particulars: for A549 cell survival (Table 1) / level above which all cell growth is suppressed: seven day experiment.
Protocol: (§1) The cells were plated for undisturbed colony growth for seven to ten days and a survival assay was performed. Colonies were washed with isotonic saline and absolute methanol before staining with Giemsa and standard colony counting.
Data set [4] concerns A549 lung cancer cells. Particulars: for level above which all cell growth is suppressed: human, 10080 min.
Protocol: as §1
For data set [5], the system named is A549 lung cancer cells. Nature of the data set: Neutron irradiation (252Cf) cell survival, kill constant. Particulars: regression of semi-log cell survival plots, 252Cf neutrons. Format: cell-based. The protocol:
The irradiation was performed by known techniques. The ^252 Cf isotope is a useful source of neutrons for BNCT (Hatanaka 1991, A). The neutron spectrum and beam characteristics are similar to those of reactor fission sources with a most probable energy of about 1 MeV. A 50 mg source of ^252 Cf moderated by water provides a source of 1×10^9 thermal neutrons/cm^2 /sec at a distance of 3 cm (personnel communication Dr. R. Martin). The half-life of ^252 Cf is 2.65 years, thus this provides a simple and reliable source of neutrons for BNCT in locations without suitable nuclear reactors.
This work was performed using sealed ^252 Cf source capsules in a hot cell without transferable radioactive contamination using a double tube arrangement which contained 1.0 ml of A 549 lung cancer cells (maximum cell number 2×10^6 cells/ml and minimum cell number 2×10^3 cells/ml). The cancer cells were exposed to approximately 2×10^8 thermal neutrons per cm^2 per second from 30 mg of ^252 Cf. The flux of neutrons was determined by the irradiation of manganese wire and subsequent analysis of activation. The duration of exposure of cells was 30 sec. 1, 1.5, 2.0 and 4.0 minutes for control groups and boronated compounds. Following radiation exposure, the A 549 lung cancer cells were placed on ice for subculturing and cell survival studies.
All boronated compounds tested worked as agents in boron neutron capture reactions. Cell survival data was calculated from semi-log plots and subjected to a regression analysis to obtain an X coefficient (kill constant) for each compound.

Data set [6] has as its system A549 lung cancer cells. In words: Cellular boron uptake by inductively coupled plasma mass spectroscopy. Format: cell-based. The protocol: The measurement of total cellular boron was made using inductively coupled mass spectrometry. Boron concentrations were measured against a calibration curve generated with a series of NIST traceable standards. Yttrium and indium (20 ng/ml) internal standards were employed to correct for drift. Analyte recoveries were monitored by the addition of boron spikes (20 ng/ml) to the samples. Analyte response was corrected accordingly. Finally, a boron standard of 60 ng/ml was utilized to ensure continued calibration. […] The lung cancer cell culture with boron exposed cells was washed by centrifugation twice, and the supernate was removed by suction prior to chemical analysis. […] All the reagents for sample preparation were analytical grade. Concentrated nitric acid (1-2 ml) and 30% hydrogen peroxide was applied to the cells.
The nitric acid-hydrogen peroxide cocktail was allowed 96 hours for cellular digestion in tubes that facilitated the venting of generated gases. Intermittent stirring was also performed on the sample tubes. All contents were transformed to boron-free tubes and the final volume was adjusted with distilled water to a 10 ml total volume for each sample tested.

The subject of data set [7] is human glioblastoma multiforme (brain) tumors. Nature of the data set: Boron biodistribution (tumor, normal brain) in mice bearing human glioblastoma multiforme tumors. Format: in vivo. Particulars: sodium salt. On the procedure: The water soluble sodium salt of the boron containing amino carboxylic compound VIII, was injected into four mice bearing human glioblastoma multiforme (brain) tumors on their hind quarter. One animal was sacrificed after 3 hours, 6 hours, 12 hours, and 24 hours and tissue samples were taken from the tumor, normal brain tissue, blood and muscle. At three hours the tumor contained 52 parts per million of boron and the normal brain contained only 7.6 ppm (a ratio of nearly 7:1). At twelve hours the tumor boron concentration was 37 ppm and the normal brain concentration was 3.7 ppm (a ratio of 10:1).

The conditions of data set [8]: mice receiving the compound; cited from earlier work.

With sodium decahydrodecaborate, in the data set on tumor cells [1], the “BNCT treatment outcome” value is “failed due to vascular damage caused by high blood levels of boron”. For the same molecule, the “ratio of boron in tumor cells compared to normal cells” value with tumor cells [2] is “high ratios of boron in tumor cells compared to normal cells”.
As for “5(5carboranyl-1-pentynyl) deoxyuridine [CN-V-264]”, the “A549 cell survival (Table 1)” value came to 10 in the data set with A549 lung cancer cells [3] (1.25 μg B/ml); 4 with A549 lung cancer cells [3] (2.5 μg B/ml); 0 in the data set with A549 lung cancer cells [3] (5.0 μg B/ml); 0 in the data set on A549 lung cancer cells [3] (10.0 μg B/ml); 0 with A549 lung cancer cells [3] (15.0 μg B/ml); 0 with A549 lung cancer cells [3] (20.0 μg B/ml). Moreover, the “level above which all cell growth is suppressed” value with A549 lung cancer cells [4] is “above 2.5 μg B/ml”. For the same molecule, the “kill constant (absolute value of X coefficient)” value (“kill constant” below) in the data set with A549 lung cancer cells [5] is 2.88. Further, in the data set on A549 lung cancer cells [6], the “Atoms of ^10 B in cell” value was 50 × 10^9 atoms ^10 B/cell. In addition, the “cellular uptake (words)” value in the data set on A549 lung cancer cells [6] is reported as “lowest in cellular uptake”.
As for `N[C@@H](Cc1ccc(B(O)O)cc1)C(=O)O` [BPA, boronophenylalanine], the “deleterious effects” value in the data set on tumor cells [2] (compared with porphyrin) is listed as “without the deleterious effects seen, for example, with porphyrin”.
“2-amino-5-[2-methyl]-1,2-dicarba-closo-dodecacarboran(12)-1-yl] pentane carboxylic acid [LSK 1-38]”: the “A549 cell survival (Table 1)” value is 50 with A549 lung cancer cells [3] (1.25 μg B/ml); 33 in the data set on A549 lung cancer cells [3] (2.5 μg B/ml); 18 in the data set with A549 lung cancer cells [3] (5.0 μg B/ml); 2 with A549 lung cancer cells [3] (10.0 μg B/ml); 0 in the data set with A549 lung cancer cells [3] (15.0 μg B/ml); 0 with A549 lung cancer cells [3] (20.0 μg B/ml). The “toxicity” value in the data set with A549 lung cancer cells [3] (A549 lung cancer cells) is reported as “low toxicity”. The “level above which all cell growth is suppressed” value in the data set on A549 lung cancer cells [3] was “above 10 μg B/ml”. Further, the “kill constant” value with A549 lung cancer cells [5] is 2.64. Further, in the data set with A549 lung cancer cells [6], the “Atoms of ^10 B in cell” value is on record as 96 × 10^9 atoms ^10 B/cell. Further, the entries for the “cellular uptake (words)” value with A549 lung cancer cells [6] (listed as LSK1-38) and in the data set on A549 lung cancer cells [6] (listed as LSK-138) were “excellent cellular uptake” and “next highest cellular uptake”, respectively.
On to “1-amino-3-[2-(7-(2-hydroxyethyl)-1,7-dicarba-nido-dodecacaboran(12)-ylethyl]cyclobutanecarboxylic acid [VIII]”, for which the “normal brain boron concentration” value in data set [7] (3 hours) amounted to 7.6 ppm; in data set [7] (12 hours) it was 3.7 ppm. In addition, the tumor boron concentration in data set [7] (3 hours after injection) is on record as 52 parts per million; in data set [7] (12 hours), 37 ppm.
Consider `O=BOB1OB2OB([O-])OB(O1)O2.[Na+]` [sodium pentaborate], for which, in the data set with tumor cells [1], the “BNCT treatment outcome” value is given as “treatment failure because of the lack of localization of boron within tumor cells”.
On to `O=BOB(O)OB(O)OB=O` [borax], for which the “BNCT treatment outcome” value with tumor cells [1] is “treatment failure because of the lack of localization of boron within tumor cells”.
Take “1-Amino-3-[2-(1,7 dicarba-closo-dodecacaboran(12)-1-yl)ethyl]cyclobutanecarboxylic acid [ACBC]”: the “A549 cell survival (Table 1)” value worked out at 39 with A549 lung cancer cells [3] (1.25 μg B/ml); 14 with A549 lung cancer cells [3] (2.5 μg B/ml); 8 with A549 lung cancer cells [3] (5.0 μg B/ml); 8 in the data set on A549 lung cancer cells [3] (10.0 μg B/ml); 0 in the data set with A549 lung cancer cells [3] (15.0 μg B/ml); 0 in the data set with A549 lung cancer cells [3] (20.0 μg B/ml). In the data set on A549 lung cancer cells [4], the “toxicity” value was “low toxicity”. Besides, the “level above which all cell growth is suppressed” value in the data set with A549 lung cancer cells [4] is given as “above 10 μg B/ml”. For the same molecule, the “kill constant” value in the data set with A549 lung cancer cells [5] was 2.71. Also, the “Atoms of ^10 B in cell” value in the data set on A549 lung cancer cells [6] is 2749 × 10^9 atoms ^10 B/cell. The “cellular uptake (words)” value in the data set on A549 lung cancer cells [6] is “greatest cellular uptake; also recorded: almost two orders of magnitude greater in uptake than the other compounds tested; also recorded: excellent cellular uptake”.
On to “2,4-divinyl-nido-o-carboranyldeuteroporphoryin IX [VCDP]”, for which the mortality of mice result in data set [8] is reported as “about 10%”.
As for `O=C(O)c1ccc(B(O)O)cc1` [p-carboxybenzeneboronic acid], in the data set with tumor cells [1], the “BNCT treatment outcome” value is recorded as “failed due to vascular damage caused by high blood levels of boron”. Besides, in the data set on tumor cells [2], the “ratio of boron in tumor cells compared to normal cells” value is recorded as “high ratios of boron in tumor cells compared to normal cells”.
As to “5(4carboranyl-1-butynyl) uridine [CDU-4]”, the “A549 cell survival (Table 1)” value in the data set on A549 lung cancer cells [3] (1.25 μg B/ml) came out at 22; in the data set with A549 lung cancer cells [3] (2.5 μg B/ml), 69; with A549 lung cancer cells [3] (5.0 μg B/ml), 0; in the data set with A549 lung cancer cells [3] (10.0 μg B/ml) it was 0; in the data set on A549 lung cancer cells [3] (15.0 μg B/ml), 0; with A549 lung cancer cells [3] (20.0 μg B/ml), 0. In addition, the “level above which all cell growth is suppressed” value with A549 lung cancer cells [3] is given as “above 2.5 μg B/ml”. Besides, in the data set on A549 lung cancer cells [5], the “kill constant” value was 2.87. Further, the “Atoms of ^10 B in cell” value in the data set with A549 lung cancer cells [6] is reported as 10 × 10^9 atoms ^10 B/cell. Besides, the “cellular uptake (words)” value in the data set on A549 lung cancer cells [6] is on record as “lowest in cellular uptake”.
